Tests used:
Format in all cases: in vivo
[1] = system: Soybeans; experiment: Pre-emergence stage, crop selectivity; settings: 4 weeks
In short: (§1)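 Pots were kept in the greenhouse for 4 weeks and then rated for growth control on activity-level criteria. Spraying took place immediately after sowing at application rates of 500 to 7.5 g/ha, using an acetone/tween 80 formulation diluted with water, on seeds under 0.5-2 cm of soil.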

[2] = system: cotton; experiment: Pre-emergence stage, crop selectivity; settings: 4 weeks
In short: as §1

[3] = system: Peanut; experiment: Pre-emergence stage, crop selectivity; settings: 4 weeks
In short: as §1

[4] = system: corn; experiment: Pre-emergence stage, crop selectivity; settings: 4 weeks
In short: as §1

[5] = system: Echinochloa crusgalli; experiment: Weeding effect in post-emergence stage; settings: for Weeding effect in post-emergence stage, Echinochloa crusgalli: level of fresh weight growth control rate
In short: (§2)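 Read-out is growth control rate, counted 3 weeks post-spray and averaged over three repeats. Greenhouse plants at the 2-3 leaf stage received spray-tower application at 500, 250, 125, 60, 30, 15 or 7.5 g/ha, with methyl oleate EC (1.5 liter/ha) and Tween 80 added.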

[6] = system: Amaranthus retroflexus; experiment: Weeding effect in post-emergence stage; settings: 7.5 g/ha, 3 weeks
In short: as §2

[7] = system: Monochoria vaginalis; experiment: Weed control effect evaluation in rice field; settings: rice field pot, 30 g/ha, 14 days after treatment
Text: (§3) The activity level criteria for plant damage (i.e., growth control rate) are as follows:
(§4) Rice field soil was loaded into a 1/1,000,000 ha pot. The seeds of Echinochloa crusgalli. Scirpus juncoides. Bidens tripartita L., Monochoria vaginalis, and Leptochloa chinensis were sowed and gently covered with soil, then left to stand still in greenhouse in the state of 0.5-1 cm of water storage. The tuber of Sagittaria trifolia was planted in the next day or 2 days later. It was kept at 3-4 cm of water storage thereafter. The weeds were treated by dripping the WP or SC water diluents prepared according to the common preparation method of the compounds of the present invention with pipette homogeneously to achieve specified effective amount when Echinochloa crusgalli. Scirpus juncoides, Bidens tripartita L., Monochoria vaginalis, and Leptochloa chinensis reached 0.5 leaf stage and Sagittaria trifolia reached the time point of primary leaf stage.
(§5) The fertility condition of Echinochloa crusgalli. Scirpus juncoides. Bidens tripartita L., Monochoria vaginalis, Leptochloa chinensis and Sagittaria trifolia 14 days after the treatment of the compound of the invention and the fertility condition of rice 21 days after the treatment of the compound of the invention respectively with the naked eye. Evaluate the weed control effect with the above activity standard level. Many compounds show excellent activity and selectivity.

[8] = system: Scirpus juncoides; experiment: Weed control effect evaluation in rice field; settings: rice field pot, 30 g/ha, 14 days after treatment
Text: as §3, §4, §5

[9] = system: Leptochloa chinensis; experiment: Weed control effect evaluation in rice field; settings: rice field pot, 30 g/ha, 14 days after treatment
Text: as §3, §4, §5

[10] = system: Rice; experiment: Transplanted rice safety evaluation; settings: transplanted japonica rice, 30 g/ha, 21 days after treatment
Description: as §3
In addition, the rice field soil that loaded into the 1/1,000,000 ha pot was leveled to keep water storage at 3-4 cm depth. The 5 leaf stage rice (japonica rice) was transplanted at 3 cm of transplanting depth the next day. The compound of the present invention was treated by the same way after 5 days of transplantation.
as §5

[11] = system: Amaranthus retroflexus; experiment: Weeding effect in pre-emergence stage; settings: 4 weeks
In short: as §1

[12] = system: Setaria viridis; experiment: Weeding effect in pre-emergence stage; settings: 4 weeks
In short: as §1

[13] = system: Capsella bursa-pastoris; experiment: Weeding effect in pre-emergence stage; settings: 4 weeks
In short: as §1

[14] = system: Abutilon theophrasti; experiment: Weeding effect in pre-emergence stage; settings: 4 weeks
In short: as §1

[15] = system: Descurainia sophia; experiment: Weeding effect in pre-emergence stage; settings: 4 weeks
In short: as §1

[16] = system: Veronica didyma Tenore; experiment: Weeding effect in pre-emergence stage; settings: 4 weeks
In short: as §1

[17] = system: Alopecurus japonicus; experiment: Weeding effect in post-emergence stage; settings: level of fresh weight growth control rate
In short: as §2

[18] = system: Digitaria sanguinalis; experiment: Weeding effect in post-emergence stage; settings: level of fresh weight growth control rate
In short: as §2

[19] = system: Setaria viridis; experiment: Weeding effect in post-emergence stage; settings: level of fresh weight growth control rate
In short: as §2

[20] = system: Abutilon theophrasti; experiment: Weeding effect in post-emergence stage; settings: level of fresh weight growth control rate
In short: as §2

[21] = system: Eleusine indica; experiment: Weeding effect in post-emergence stage; settings: for Weeding effect in post-emergence stage, Eleusine indica: level of fresh weight growth control rate
In short: as §2

[22] = system: Echinochloa caudata Roshev.; experiment: Composition activity test, post-emergence foliage spray
Description: (§6) are as follows, and the others were purchased from reagent companies. The technical materials were all dissolved in acetone and diluted with an aqueous solution containing 0.1% emulsifier Tween-80. The dilution is performed as required.
(§7) Weeds were cultivated by a pot culture method. […] Full and uniform weed seeds were selected, soaked in warm water at 25° C. for 6 hours, and germinated in a 28° C. biochemical incubator (darkness). The weed seeds that had just germinated were evenly placed on the surface of the soil and then covered with 0.5-1 cm soil according to the sizes of seeds.
(§8) The culture was carried out in a controllable sunlight greenhouse at 20 to 30° C., in natural light, and relative humidity of 57% to 72%.
(§9) 3 pots with 20 weed seeds per pot were treated in one treatment with 4 replications per treatment.
(§10) The agents were used for only once in the experiment. In the stage of weeds with 1.5-2 leaves, the weeds were thinned out to maintain 10 weeds per pot and 30 weeds for each treatment, then continued to be cultured to Conyza Canadensis 10 cm in height, other weeds 3-4 leaves stage and treated.
(§11) The well-cultured weeds were evenly placed on a platform with an area of 0.5 m^2, and a solution of agents was sprayed on the stems and leaves thereof by the 3WP-2000-type walking spray tower at a dosage of 450 kg/ha and at a spray pressure of 0.3 MPa. After all the solution was sprayed, the valve was closed. After 30 seconds, the door of the spray tower was opened, and the nutritional bowl was taken out. Then the valve was opened, and the spray tube was cleaned by spraying 50 ml of water. After the treatment, the weeds were routinely cultured in a greenhouse.
(§12) A method for investigating absolute number was employed, wherein whole seedlings of survival weeds were cut off with a blade along the soil surface, and the fresh weight of the weeds was weighed with an analytical balance. For dead weeds, the fresh weight thereof was zero.
(§13) The investigation was performed after 21 days of the treatment for only once.
(§14) An optimum ratio of the two active ingredients was determined by the actual control effect, characteristics of herbicides, and balance of a corresponding formula. Wherein, in the formula, X represented the fresh weight inhibition rate of the active ingredient A in a dosage of P, and Y represented the fresh weight inhibition rate of the active ingredient B in a dosage of Q. The statistical results were shown in the table 6.

[23] = system: Malachium aquaticum; experiment: as above; settings: B 7.5 g a.i./ha
Description: as §6, §7, §8, §9, §10, §11, §12, §13, §14

[24] = post-emergence, 7.5 g/ha, 3 weeks

COC(=O)[C@@H](C)O/N=C/c1cc(-n2c(=O)cc(C(F)(F)F)n(C)c2=O)c(F)cc1Cl [194(R)]
plant damage level Soybeans ([1]; 15 g/ha): 0 (Level 0: growth control rate is less than 5%) | plant damage level Soybeans ([1]; 30 g/ha): 0 (Level 0: growth control rate is less than 5%) | plant damage level Soybeans ([1]; 60 g/ha): 0 (Level 0: growth control rate is less than 5%) | plant damage level Cotton ([2]; 15 g/ha): 0 (Level 0: growth control rate is less than 5%) | plant damage level Cotton ([2]; 30 g/ha): 0 (Level 0: growth control rate is less than 5%) | plant damage level Cotton ([2]; 60 g/ha): 0 (Level 0: growth control rate is less than 5%) | plant damage level Peanut ([3]; 15 g/ha): 0 (Level 0: growth control rate is less than 5%) | plant damage level Peanut ([3]; 30 g/ha): 0 (Level 0: growth control rate is less than 5%) | plant damage level Peanut ([3]; 60 g/ha): 0 (Level 0: growth control rate is less than 5%) | plant damage level Corn ([4]; 15 g/ha): 0 (Level 0: growth control rate is less than 5%) | plant damage level Corn ([4]; 30 g/ha): 0 (Level 0: growth control rate is less than 5%) | plant damage level Corn ([4]; 60 g/ha): 0 (Level 0: growth control rate is less than 5%) | Weeding effect in post-emergence stage, Echinochloa crusgalli ([5]; Dose 7.5 g/ha): 5 (Level 5: growth control rate is above 85%) | Weeding effect in post-emergence stage, Echinochloa crusgalli ([5]; Dose 15 g/ha): 5 (Level 5: growth control rate is above 85%) | activity level (growth control rate) Echinochloa crusgalli [5, 24]: 5 (Level 5: growth control rate is above 85%) | activity level (growth control rate) Amaranthus retroflexus [6]: 5 (Level 5: growth control rate is above 85%) | activity level (weed control effect) Monochoria vaginalis [7]: 5 (Level 5: growth control rate is above 85%) | activity level (weed control effect) Scirpus juncoides [8]: 5 (Level 5: growth control rate is above 85%) | activity level (weed control effect) Leptochloa chinensis [9]: 5 (Level 5: growth control rate is above 85%) | plant damage level Rice [10]: 0 (Level 0: growth control rate is less than 5%) | activity level (growth control rate) Amaranthus retroflexus ([11]; 15 g/ha): 5 (Level 5: growth control rate is above 85%) | activity level (growth control rate) Amaranthus retroflexus ([11]; 30 g/ha): 5 (Level 5: growth control rate is above 85%) | activity level (growth control rate) Amaranthus retroflexus ([11]; 60 g/ha): 5 (Level 5: growth control rate is above 85%) | activity level (growth control rate) Setaria viridis ([12]; 15 g/ha): 5 (Level 5: growth control rate is above 85%) | activity level (growth control rate) Setaria viridis ([12]; 30 g/ha): 5 (Level 5: growth control rate is above 85%) | activity level (growth control rate) Setaria viridis ([12]; 60 g/ha): 5 (Level 5: growth control rate is above 85%) | activity level (growth control rate) Capsella bursa-pastoris ([13]; 15 g/ha): 5 (Level 5: growth control rate is above 85%) | activity level (growth control rate) Capsella bursa-pastoris ([13]; 30 g/ha): 5 (Level 5: growth control rate is above 85%) | activity level (growth control rate) Capsella bursa-pastoris ([13]; 60 g/ha): 5 (Level 5: growth control rate is above 85%) | activity level (growth control rate) Abutilon theophrasti ([14]; 15 g/ha): 5 (Level 5: growth control rate is above 85%) | activity level (growth control rate) Abutilon theophrasti ([14]; 30 g/ha): 5 (Level 5: growth control rate is above 85%) | activity level (growth control rate) Abutilon theophrasti ([14]; 60 g/ha): 5 (Level 5: growth control rate is above 85%) | activity level (growth control rate) Descurainia sophia ([15]; 15 g/ha): 5 (Level 5: growth control rate is above 85%) | activity level (growth control rate) Descurainia sophia ([15]; 30 g/ha): 5 (Level 5: growth control rate is above 85%) | activity level (growth control rate) Descurainia sophia ([15]; 60 g/ha): 5 (Level 5: growth control rate is above 85%) | activity level (growth control rate) Veronica didyma Tenore ([16]; 15 g/ha): 5 (Level 5: growth control rate is above 85%) | activity level (growth control rate) Veronica didyma Tenore ([16]; 30 g/ha): 5 (Level 5: growth control rate is above 85%) | activity level (growth control rate) Veronica didyma Tenore ([16]; 60 g/ha): 5 (Level 5: growth control rate is above 85%) | Weeding effect in post-emergence stage, Alopecurus japonicus ([17]; Dose 7.5 g/ha): 5 (Level 5: growth control rate is above 85%) | Weeding effect in post-emergence stage, Alopecurus japonicus ([17]; Dose 15 g/ha): 5 (Level 5: growth control rate is above 85%) | Weeding effect in post-emergence stage, Digitaria sanguinalis ([18]; Dose 7.5 g/ha): 5 (Level 5: growth control rate is above 85%) | Weeding effect in post-emergence stage, Digitaria sanguinalis ([18]; Dose 15 g/ha): 5 (Level 5: growth control rate is above 85%) | Weeding effect in post-emergence stage, Setaria viridis ([19]; Dose 7.5 g/ha): 5 (Level 5: growth control rate is above 85%) | Weeding effect in post-emergence stage, Setaria viridis ([19]; Dose 15 g/ha): 5 (Level 5: growth control rate is above 85%) | Weeding effect in post-emergence stage, Abutilon theophrasti ([20]; Dose 7.5 g/ha): 5 (Level 5: growth control rate is above 85%) | Weeding effect in post-emergence stage, Abutilon theophrasti ([20]; Dose 15 g/ha): 5 (Level 5: growth control rate is above 85%) | Weeding effect in post-emergence stage, Eleusine indica ([21]; Dose 7.5 g/ha): 5 (Level 5: growth control rate is above 85%) | Weeding effect in post-emergence stage, Eleusine indica ([21]; Dose 15 g/ha): 5 (Level 5: growth control rate is above 85%) | activity level (growth control rate) Eleusine indica [21, 24]: 5 (Level 5: growth control rate is above 85%)

CCC[S@@+]([O-])c1c(C(F)(F)F)ccc(C(=O)Nc2nnc(C)o2)c1F [Cpd B1]
Control effect (%) of B applied alone (B) ([22]; B 7.5 g a.i./ha): 47.8%

Cn1[nH]c(C2CC2)c(C(=O)c2ccc(C(F)(F)F)c(N3CCCCC3=O)c2Cl)c1=O [huanbifucaotong]
Control effect (%) of B applied alone (B) ([22]; B 60 g a.i./ha): 27.4%

CCOC(=O)c1cnn(C)c1S(=O)(=O)NC(=O)Nc1nc(OC)cc(OC)n1 [pyrazosulfuron-ethyl, reference compound]
activity level (weed control effect) Monochoria vaginalis [7]: 2 (Level 2: growth control rate is greater than or equal to 20% and less than 40%) | activity level (weed control effect) Scirpus juncoides [8]: 1 (Level 1: growth control rate is greater than or equal to 5% and less than 20%) | activity level (weed control effect) Leptochloa chinensis [9]: 2 (Level 2: growth control rate is greater than or equal to 20% and less than 40%) | plant damage level Rice [10]: 1 (Level 1: growth control rate is greater than or equal to 5% and less than 20%) | Control effect (%) of B applied alone (B) [23]: 35.7%
